pIC50: −log10 of the molar value. Peptide text beside a SMILES is read from it. * marks the point of attachment. NHOH = ON*
Legend:
[1] = molecular target: T1, Bone morphogenetic protein 1 (Homo sapiens, UniProt P13497); assay: Inhibition of PCP after 1 hr by fluorescence assay
T1 sequence (P13497 whole entry): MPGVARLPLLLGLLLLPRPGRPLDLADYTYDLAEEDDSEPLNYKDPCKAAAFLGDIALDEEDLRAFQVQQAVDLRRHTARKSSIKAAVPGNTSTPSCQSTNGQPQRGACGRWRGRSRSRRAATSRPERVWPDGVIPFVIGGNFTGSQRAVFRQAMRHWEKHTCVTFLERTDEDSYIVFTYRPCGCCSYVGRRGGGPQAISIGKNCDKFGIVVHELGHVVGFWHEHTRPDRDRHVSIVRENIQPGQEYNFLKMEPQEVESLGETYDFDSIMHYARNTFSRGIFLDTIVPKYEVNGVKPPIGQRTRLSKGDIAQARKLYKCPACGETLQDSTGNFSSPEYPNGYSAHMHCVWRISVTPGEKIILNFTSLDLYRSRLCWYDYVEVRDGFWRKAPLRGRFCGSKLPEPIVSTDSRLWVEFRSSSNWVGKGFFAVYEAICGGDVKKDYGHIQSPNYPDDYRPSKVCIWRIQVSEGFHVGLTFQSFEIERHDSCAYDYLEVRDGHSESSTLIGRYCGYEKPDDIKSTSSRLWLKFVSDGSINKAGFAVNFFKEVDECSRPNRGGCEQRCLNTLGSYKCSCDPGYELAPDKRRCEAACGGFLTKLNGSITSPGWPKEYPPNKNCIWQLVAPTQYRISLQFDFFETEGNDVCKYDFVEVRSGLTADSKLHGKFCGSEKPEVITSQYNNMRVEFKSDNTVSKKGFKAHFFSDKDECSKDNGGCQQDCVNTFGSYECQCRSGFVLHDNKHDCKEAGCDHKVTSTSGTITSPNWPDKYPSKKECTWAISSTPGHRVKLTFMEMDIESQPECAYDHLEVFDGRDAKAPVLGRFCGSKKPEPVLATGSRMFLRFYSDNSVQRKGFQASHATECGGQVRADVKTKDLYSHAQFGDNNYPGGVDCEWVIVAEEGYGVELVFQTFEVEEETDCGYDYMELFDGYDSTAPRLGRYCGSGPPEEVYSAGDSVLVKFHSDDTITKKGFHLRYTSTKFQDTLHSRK

Interstitial collagenase = molecular target: T2, Interstitial collagenase (Homo sapiens, UniProt P03956); assay: Inhibition of para-amino phenylmercuric acetate-activated MMP1 using Mca-P-L-G-L-Dap(Dnp)-A-R-NH2 as substrate after 1 hr by fluorescence assay
T2 sequence (P03956 whole entry): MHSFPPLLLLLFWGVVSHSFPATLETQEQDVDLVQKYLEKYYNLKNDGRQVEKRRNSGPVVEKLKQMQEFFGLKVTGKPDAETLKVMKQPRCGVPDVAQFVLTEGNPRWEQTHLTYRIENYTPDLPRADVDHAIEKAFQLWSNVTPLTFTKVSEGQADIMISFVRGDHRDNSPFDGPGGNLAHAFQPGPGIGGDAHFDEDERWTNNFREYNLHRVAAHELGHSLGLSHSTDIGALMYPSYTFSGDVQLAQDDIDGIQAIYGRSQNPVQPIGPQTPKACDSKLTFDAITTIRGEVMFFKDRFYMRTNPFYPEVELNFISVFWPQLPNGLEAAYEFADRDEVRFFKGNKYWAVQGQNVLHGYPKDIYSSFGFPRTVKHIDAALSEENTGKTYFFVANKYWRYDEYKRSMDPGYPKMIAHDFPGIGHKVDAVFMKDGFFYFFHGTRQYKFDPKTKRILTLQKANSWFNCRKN

[2] = molecular target: Matrix metalloproteinase-9 (Homo sapiens, UniProt P14780); assay: Inhibition of para-amino phenylmercuric acetate-activated MMP9 using Mca-P-L-G-L-Dap(Dnp)-A-R-NH2 as substrate after 1 hr by fluorescence assay
[3] = molecular target: 72 kDa type IV collagenase (Homo sapiens, UniProt P08253); assay: Inhibition of para-amino phenylmercuric acetate-activated MMP2 using Mca-P-L-G-L-Dap(Dnp)-A-R-NH2 as substrate after 1 hr by fluorescence assay
3T3-L1 = assay: Cytotoxicity against mouse 3T3L1 cells; type: cell-based

Matrix metalloproteinase-9, sequence (P14780 whole entry): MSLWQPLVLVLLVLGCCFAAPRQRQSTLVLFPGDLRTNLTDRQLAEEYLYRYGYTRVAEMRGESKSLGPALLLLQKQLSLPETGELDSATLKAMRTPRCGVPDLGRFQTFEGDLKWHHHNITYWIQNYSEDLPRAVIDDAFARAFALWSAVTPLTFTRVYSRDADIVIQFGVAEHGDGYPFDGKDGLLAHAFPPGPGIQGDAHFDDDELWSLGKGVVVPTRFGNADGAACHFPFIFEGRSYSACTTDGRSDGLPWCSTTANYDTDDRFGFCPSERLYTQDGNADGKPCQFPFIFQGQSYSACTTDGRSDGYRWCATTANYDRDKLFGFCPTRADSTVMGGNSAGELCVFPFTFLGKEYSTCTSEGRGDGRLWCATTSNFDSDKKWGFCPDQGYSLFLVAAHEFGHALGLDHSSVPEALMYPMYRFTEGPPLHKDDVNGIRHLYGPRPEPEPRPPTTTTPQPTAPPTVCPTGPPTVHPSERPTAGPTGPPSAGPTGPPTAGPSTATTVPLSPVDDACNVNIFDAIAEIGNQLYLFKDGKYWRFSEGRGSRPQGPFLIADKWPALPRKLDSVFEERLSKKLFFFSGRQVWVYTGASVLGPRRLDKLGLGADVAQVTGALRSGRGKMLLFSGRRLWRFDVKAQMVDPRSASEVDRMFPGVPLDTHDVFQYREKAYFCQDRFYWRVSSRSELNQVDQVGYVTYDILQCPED
72 kDa type IV collagenase, sequence (P08253 whole entry): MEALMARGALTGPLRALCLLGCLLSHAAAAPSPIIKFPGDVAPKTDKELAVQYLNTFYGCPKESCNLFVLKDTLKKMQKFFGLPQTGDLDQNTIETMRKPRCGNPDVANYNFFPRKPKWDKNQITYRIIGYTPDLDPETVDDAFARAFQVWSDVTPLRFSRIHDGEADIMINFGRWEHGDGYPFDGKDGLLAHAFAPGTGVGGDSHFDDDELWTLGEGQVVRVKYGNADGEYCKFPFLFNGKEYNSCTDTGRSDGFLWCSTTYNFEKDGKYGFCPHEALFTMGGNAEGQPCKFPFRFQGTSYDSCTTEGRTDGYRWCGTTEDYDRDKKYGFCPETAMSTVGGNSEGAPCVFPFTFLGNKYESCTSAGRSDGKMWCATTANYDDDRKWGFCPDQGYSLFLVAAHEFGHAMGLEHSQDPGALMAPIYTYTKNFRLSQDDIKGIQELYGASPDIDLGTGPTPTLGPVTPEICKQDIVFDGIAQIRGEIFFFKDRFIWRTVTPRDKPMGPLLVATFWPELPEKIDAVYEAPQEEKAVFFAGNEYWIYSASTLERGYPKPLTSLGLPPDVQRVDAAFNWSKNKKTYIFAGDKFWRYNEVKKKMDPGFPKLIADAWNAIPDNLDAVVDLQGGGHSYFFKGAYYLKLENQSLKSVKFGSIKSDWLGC

SMILES | pIC50 [1] | other results
COc1ccc(S(=O)(=O)N(CCC(=O)NO)CCc2ccc(OC)c(OC)c2)cc1 | 4.38 | –
COc1ccc(CCN(CCC(=O)NO)S(=O)(=O)c2ccc(NC(=O)NCc3ccccc3)cc2)cc1 | – | pIC50 (Interstitial collagenase): < 4.60; pIC50 [2]: < 4.60; pIC50 [3]: < 4.60
COc1ccc(S(=O)(=O)NCCC(=O)NO)cc1 | 3.78 | –
O=C(CCN(CCc1ccccc1)S(=O)(=O)c1ccccc1)NO | 5.66 | –
O=C(CCN(CCc1ccccc1)S(=O)(=O)c1ccc(C(=O)O)cc1)NO | 6.00 | –
COc1ccc(CCN(CCC(=O)NO)S(=O)(=O)c2ccc(/C(N)=N/O)cc2)cc1 | – | pIC50 (3T3-L1): 3.82; pIC50 (Interstitial collagenase): < 4.60; pIC50 [2]: < 4.60; pIC50 [3]: < 4.60
COc1ccc(CCN(CCC(=O)NO)S(=O)(=O)c2ccccc2/C(N)=N\O)cc1 | 5.15 | –
COc1ccc(CCN(CCC(=O)NO)S(=O)(=O)c2ccc(S(C)(=O)=O)cc2)cc1 | – | pIC50 [2]: < 5.22; pIC50 [3]: < 5.22
CC(C)(C)c1ccc(S(=O)(=O)N(CCC(=O)NO)CCc2ccccc2)cc1 | 4.77 | –
COc1ccc(CCN(CC(=O)CS)S(=O)(=O)c2ccc(S(C)(=O)=O)cc2)cc1 | 5.33 | –
COc1ccc(CCN(CCC(=O)CS)S(=O)(=O)c2ccc(S(C)(=O)=O)cc2)cc1 | 4.89 | –
COc1ccc(CCN(CCN(O)C(N)=O)S(=O)(=O)c2ccc(S(C)(=O)=O)cc2)cc1 | < 4.00 | –
COc1ccc(S(=O)(=O)N(CCC(=O)NO)Cc2ccccc2)cc1 | 5.35 | –
COc1ccc(S(=O)(=O)N(CCCC(=O)NO)c2ccccc2)cc1 | 4.55 | –
COc1ccc(S(=O)(=O)N(CCCC(=O)NO)Cc2ccccc2)cc1 | 5.00 | –
COc1ccc(S(=O)(=O)N(CC(=O)NO)Cc2ccc(F)cc2)cc1 | 4.47 | –

SMILES | pIC50 [1] | other results
COc1ccc(N(CC(=O)NO)S(=O)(=O)c2ccc(OC)cc2)cc1 | 4.14 | –
COc1ccc(S(=O)(=O)N(CC(=O)NO)C(c2ccccc2)c2ccccc2)cc1 | 3.99 | –
CCC(C)N(CCC(=O)NO)S(=O)(=O)c1ccc(OC)cc1 (stereo not given) | 5.77 | –
COc1ccc(S(=O)(=O)N(CCC(=O)NO)CC2CCCCC2)cc1 | 6.00 | –
COc1ccc(S(=O)(=O)N(CCC(=O)NO)CCc2cccc(OC)c2)cc1 | 5.64 | –
COc1ccc(S(=O)(=O)N(CCC(=O)NO)CCc2ccc(S(N)(=O)=O)cc2)cc1 | 4.64 | –
CNC(=O)[C@H](CCC(=O)O)NC(=O)[C@H](CC(=O)O)NCC(=O)O | 2.82 | –
CNC(=O)[C@H](CCC(=O)O)NC(=O)C(CS)CC(=O)O (stereo not given in full) | 4.07 | –
COc1ccc(S(=O)(=O)N[C@@H](CC(=O)O)C(=O)NO)cc1 | 5.00 | –
COc1ccc(S(=O)(=O)N(Cc2ccccc2)[C@@H](CC(=O)O)C(=O)NO)cc1 | 5.55 | –
COc1ccc(S(=O)(=O)N(CC(=O)NO)c2ccccc2)cc1 | 4.16 | –
COc1ccc(CN(CC(=O)NO)S(=O)(=O)c2ccc(OC)cc2)cc1 | 4.54 | –
COc1ccc(S(=O)(=O)N(CC(=O)NO)Cc2ccccc2)cc1 | 4.80 | –
CCC(C)N(CC(=O)NO)S(=O)(=O)c1ccc(OC)cc1 (stereo not given) | 3.95 | –
CC(=O)N1CCC[C@H]1C(=O)N[C@@H](Cc1ccc(O)cc1)C(=O)N[C@@H](Cc1ccc(O)cc1)C(=O)NCC(=O)NO (Ac-PYYG-{NHOH}) | 4.38 | –
CNC(=O)[C@H](CCC(=O)O)NC(=O)C(CC(=O)O)CC(=O)NO (mixture of isomers) | 4.40 | –

More lines, main results first:

pIC50 [1] | SMILES | other results
5.17 | CCCCS(=O)(=O)N(CCC(=O)NO)CCc1ccc(OC)cc1 | –
4.26 | CCCCS(=O)(=O)N(CCc1ccc(OC)cc1)CC(=O)NO | –
5.04 | COc1ccc(CCN(CCC(=O)NO)S(=O)(=O)c2ccccc2S(C)(=O)=O)cc1 | –
4.85 | COc1ccc(CCN(CCCS)S(=O)(=O)c2ccc(S(C)(=O)=O)cc2)cc1 | –
5.03 | COc1ccc(CCN(CCS)S(=O)(=O)c2ccc(S(C)(=O)=O)cc2)cc1 | –
5.52 | COc1ccc(S(=O)(=O)N(CCC(=O)NO)c2ccccc2)cc1 | –
3.78 | CCCCOC(=O)CN(CC(=O)NO)S(=O)(=O)c1ccc(OC)cc1 | –
4.74 | COc1ccc(CCN(CC(=O)NO)S(=O)(=O)c2ccc(OC)cc2)cc1 | –
4.17 | COc1ccc(S(=O)(=O)N(CC(=O)NO)Cc2ccc(C(F)(F)F)cc2)cc1 | –
5.09 | COc1ccc(S(=O)(=O)N(CCC(=O)NO)CCc2ccccn2)cc1 | –
5.77 | COc1ccc(N(CCC(=O)NO)S(=O)(=O)c2ccc(OC)cc2)cc1 | –
4.96 | COc1ccc(S(=O)(=O)N(CCC(=O)NO)CCc2ccc([N+](=O)[O-])cc2)cc1 | –
4.72 | COc1ccc(S(=O)(=O)N(CC(=O)NO)Cc2ccc(Cl)cc2)cc1 | pIC50 [2]: 7.30; pIC50 [3]: 6.85
3.46 | COc1ccc(S(=O)(=O)N(CC(=O)O)CC(=O)NO)cc1 | –
4.74 | COc1ccc(S(=O)(=O)N(CCc2ccccc2)CC(=O)NO)cc1 | –
